Data as given in patent US5449750A, “Prolyl endopeptidase inhibitors SNA-115 and SNA-115T, and process for the production and productive strain thereof” (Snow Brand Milk Products Co., Ltd., priority 1991, dated 1995).
Values joined by “and” are separate entries in the source; they are usually repeats but may differ in a detail not shown here. Equal values may be shown once. Read-outs that look alike come from different tables or passages of the source. Where a SMILES comes first, the peptide text is derived from it. Bridges are numbered along the chain shown (N, C = ends). Roman numbers before positions name the chains, in order.

Legend:
[1] = system: Salmonella typhimurium SL 1102; assay: Antimicrobial activity, paper disc method; type: cell-based; conditions: 40 μg per disc
Protocol: (§1) The antimicrobial activity of SNA-115 was determined in 24 bacteria, fungi, and yeasts by paper disc method. SNA-115 was placed on paper discs at an amount of 40 μg each and the disc was placed on the test plates. The test plates were cultured under optimal conditions of the test microorganisms.
The antimicrobial activity of SNA-115T compound was determined in 9 bacteria and fungi by paper disc method in an agar plate. SNA-115T was placed on paper discs at an amount of 40 μg each and the disc was placed on the test plates. The test plates were cultured under optimal conditions of the rest microorganisms. The inhibition zones of SNA-115 were also shown for the comparison.

[2] = system: Xanthomonas oryzae IFO 3312; type: cell-based
[3] = system: Botrytis cinerea IFO 5365; assay: Antimicrobial activity, paper disc method; type: cell-based; conditions: 40 μg per disc
[4] = target: prolyl endopeptidase derived from Flavobacterium (Elizabethkingia meningoseptica, UniProt P27028); assay: Prolyl endopeptidase inhibitory activity (Z-Gly-Pro-pNA substrate, p-nitroaniline at 410 nm); type: biochemical; conditions: for IC50: 50% inhibitory concentration (IC50), 0.2 mM Z-Gly-Pro-pNA as substrate, sample in methanol, 30° C., pH 7.0; for inhibitory pattern / Ki: Dixon plot; for Ki: inhibitor constant Ki, various concentrations of substrate and inhibitor
[5] = system: Pyricularia oryzae IFO 5994; type: cell-based
Bacillus subtilis rec^+ = assay: Antimicrobial activity, paper disc method; type: cell-based; conditions: 40 μg per disc
[6] = system: Mycobacterium phlei IFO 3158; assay: Antimicrobial activity, paper disc method; type: cell-based; conditions: 40 μg per disc
[7] = system: Pseudomonas aeruginosa N-10 (L-form); assay: Antimicrobial activity, paper disc method; type: cell-based; conditions: 40 μg per disc
[8] = Acute toxicity (intravenous injection)
[9] = system: Xanthomonas citri IFO 3781; assay: Antimicrobial activity, paper disc method; type: cell-based; conditions: 40 μg per disc
Bacillus subtilis rec^- = assay: Antimicrobial activity, paper disc method; type: cell-based; conditions: 40 μg per disc
[10] = system: Escherichia coli multi resistant; assay: Antimicrobial activity, paper disc method; type: cell-based; conditions: 40 μg per disc
Protocol: as §1

[11] = system: Pseudomonas aeruginosa IFO 13130; assay: Antimicrobial activity, paper disc method; type: cell-based; conditions: 40 μg per disc
Protocol: as §1

[12] = system: Schizosaccharomyces Pombe IFO 0638; assay: Antimicrobial activity, paper disc method; type: cell-based; conditions: 40 μg per disc
Protocol: as §1

[13] = system: Trichophyton rubrum IFO 6203; assay: Antimicrobial activity, paper disc method; type: cell-based; conditions: 40 μg per disc
Protocol: as §1

[14] = system: Fusarium oxysporum IFO 9761; assay: Antimicrobial activity, paper disc method; type: cell-based; conditions: 40 μg per disc
Protocol: as §1

[15] = system: Staphylococcus aureus multi resistant; assay: Antimicrobial activity, paper disc method; type: cell-based; conditions: 40 μg per disc
Protocol: as §1

[16] = system: Colletotrichum lagenarium IFO 7513; assay: Antimicrobial activity, paper disc method; type: cell-based; conditions: 40 μg per disc
Protocol: as §1

[17] = system: Salmonella typhimurium TV 119; assay: Antimicrobial activity, paper disc method; type: cell-based; conditions: 40 μg per disc
Protocol: as §1

Escherichia coli AB 1157 = assay: Antimicrobial activity, paper disc method; type: cell-based; conditions: 40 μg per disc
Protocol: as §1

Alternaria mali IFO 8984 = assay: Antimicrobial activity, paper disc method; type: cell-based; conditions: 40 μg per disc
Protocol: as §1

[18] = system: Candida albicans IFO 1594; assay: Antimicrobial activity, paper disc method; type: cell-based; conditions: 40 μg per disc
Protocol: as §1

[19] = system: Micrococcus luteus IFO 12708; assay: Antimicrobial activity, paper disc method; type: cell-based; conditions: 40 μg per disc
Protocol: as §1

Chlorella vulgaris = assay: Antimicrobial activity, paper disc method; type: cell-based; conditions: 40 μg per disc
Protocol: as §1

Escherichia coli BE 1186 = assay: Antimicrobial activity, paper disc method; type: cell-based; conditions: 40 μg per disc
Protocol: as §1

[20] = system: Staphylococcus aureus IFO 12732; assay: Antimicrobial activity, paper disc method; type: cell-based; conditions: 40 μg per disc
Protocol: as §1

[21] = system: Human epidermoid carcinoma (oral) KB cells; assay: Cytotoxicity, cell proliferation (MTT); type: cell-based; conditions: 72 hrs culture
Protocol: (§2) Human epidermoid carcinoma (oral) KB cells and mouse leukemia L1210 cells each were placed in a 96 wells microplate (2,000 cells/100 μl/well). The former cells were cultured in DMEM medium and the latter cells were cultured in RPMI 1640 medium, each containing 5% FCS. They were cultured in the presence of 5% CO2 at 37° C. for 24 hrs. Five μl each of a serial concentration of SNA-115 in methanol were added to the wells and cultured for 72 hrs. and cultured further 4 hrs. after the addition of 10 μl of 2.5 mg/ml MTT solution to produce formazan. The cultured mixture was centrifuged at 2,000 rpm for 2 min., the supernatant was removed, 100 μl of DMSO was added to the residue and the absorption at 540 nm was determined by an immunoreader. The cell proliferation inhibitory activity of samples was obtained from comparison of their ratios to that of control group.

[22] = system: mouse leukemia L1210 cells; assay: Cytotoxicity, cell proliferation (MTT); type: cell-based; conditions: 72 hrs culture
Protocol: as §2

Solubility in solvents = conditions: organic solvents and water, qualitative
[23] = ( ) indicates partial inhibition

Chain of prolyl endopeptidase derived from Flavobacterium (P27028 21-705): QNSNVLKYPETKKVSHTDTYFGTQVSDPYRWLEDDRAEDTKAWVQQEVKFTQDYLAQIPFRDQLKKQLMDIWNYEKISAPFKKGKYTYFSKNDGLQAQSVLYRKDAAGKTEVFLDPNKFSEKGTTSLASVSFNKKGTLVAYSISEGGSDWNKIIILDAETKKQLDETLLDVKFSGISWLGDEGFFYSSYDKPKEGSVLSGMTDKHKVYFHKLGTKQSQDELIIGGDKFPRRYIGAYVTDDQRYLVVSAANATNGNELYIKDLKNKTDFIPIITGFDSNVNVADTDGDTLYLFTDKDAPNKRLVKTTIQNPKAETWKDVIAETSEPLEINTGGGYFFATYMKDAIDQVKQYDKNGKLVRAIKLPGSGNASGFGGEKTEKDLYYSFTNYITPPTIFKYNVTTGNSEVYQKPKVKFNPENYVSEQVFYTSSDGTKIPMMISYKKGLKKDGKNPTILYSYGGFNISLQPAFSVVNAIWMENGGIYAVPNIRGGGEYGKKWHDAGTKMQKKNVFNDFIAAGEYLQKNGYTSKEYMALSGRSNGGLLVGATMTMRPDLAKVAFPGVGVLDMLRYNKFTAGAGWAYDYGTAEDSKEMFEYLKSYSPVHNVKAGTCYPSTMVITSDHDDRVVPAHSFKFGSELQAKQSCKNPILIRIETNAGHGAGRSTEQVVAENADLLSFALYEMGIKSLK

## CC[C@H](C)[C@H](NC(=O)[C@H](Cc1ccccc1)NC(=O)[C@@H](NC(=O)[C@H](Cc1c[nH]cn1)NC(=O)CNC(=O)CNC(=O)[C@H](Cc1ccccc1)NC(=O)[C@H](CC(C)C)NC(=O)[C@@H](N)CC(=O)NCC(=O)N[C@@H](Cc1ccc(O)cc1)C(=O)N1CCC[C@H]1C(=O)N[C@@H](Cc1c[nH]c2ccccc12)C(=O)N[C@@H](Cc1c[nH]c2ccccc12)C(=O)N[C@@H](CC(=O)O)C(=O)N[C@@H](Cc1ccc(O)cc1)C(=O)N[C@@H](CCCNC(=N)N)C(=O)O)[C@@H](C)O)C(=O)N[C@@H](CO)C(=O)N1CCC[C@H]1C(=O)O [SNA-115T] (I: H-DLFGGHTFISP-OH / II: GYPWWDYR-OH; amide I:1-II:N)
[1]
  Inhibition zone: 0 mm
[2]; paper disc, 40 μg per disc
  Inhibition zone: 0 mm
[3]
  Inhibition zone: 0 mm
[4]
  IC50: 1300 nM
  inhibitory pattern: competitive inhibition
  Ki: 475 nM and 480 nM
[5]; paper disc, 40 μg per disc
  Inhibition zone: 0 mm
Bacillus subtilis rec^+
  Inhibition zone: 0 mm
[6]
  Inhibition zone: 0 mm
[7]
  Inhibition zone: 0 mm
[8]
  acute toxicity: ≥ 10 mg/kg
[9]
  Inhibition zone: 0 mm
Bacillus subtilis rec^-
  Inhibition zone: 0 mm

## CC[C@H](C)[C@H](NC(=O)[C@H](Cc1ccccc1)NC(=O)[C@@H](NC(=O)[C@H](Cc1c[nH]cn1)NC(=O)CNC(=O)CNC(=O)[C@H](Cc1ccccc1)NC(=O)[C@H](CC(C)C)NC(=O)[C@@H]1CC(=O)NCC(=O)N[C@@H](Cc2ccc(O)cc2)C(=O)N2CCC[C@H]2C(=O)N[C@@H](Cc2c[nH]c3ccccc23)C(=O)N[C@@H](Cc2c[nH]c3ccccc23)C(=O)N[C@@H](CC(=O)O)C(=O)N[C@@H](Cc2ccc(O)cc2)C(=O)N[C@@H](CCCNC(=N)N)C(=O)N1)[C@@H](C)O)C(=O)N[C@@H](CO)C(=O)N1CCC[C@H]1C(=O)O [SNA-115] (GYPWWDYRDLFGGHTFISP-OH; lactam N-9)
[1]
  Inhibition zone: 0 mm
[10]
  Inhibition zone: 0 mm
[11]
  Inhibition zone: 0 mm
[12]
  Inhibition zone: 0 mm
[13]
  Inhibition zone: 0 mm
[14]
  Inhibition zone: 0 mm
[15]
  Inhibition zone: 0 mm
[16]
  Inhibition zone: 0 mm
[17]
  Inhibition zone: 0 mm
Escherichia coli AB 1157
  Inhibition zone: 0 mm
Alternaria mali IFO 8984
  Inhibition zone: 0 mm
[18]
  Inhibition zone: 0 mm
[19]
  Inhibition zone: 0 mm
Chlorella vulgaris
  Inhibition zone: 0 mm
Escherichia coli BE 1186
  Inhibition zone: 0 mm
[20]
  Inhibition zone: 0 mm
[2]
  Inhibition zone: 11.5 mm
  Inhibition zone (class symbol): + (key: + indicates inhibitory zone diameter of 10 mm or less)
[3]
  Inhibition zone: 0 mm
[4]
  inhibitory pattern: competitive inhibition
[5]
  Inhibition zone: 0 mm
Bacillus subtilis rec^+
  Inhibition zone: 0 mm
[6]
  Inhibition zone: 14.5 mm and 13.8 mm
[21]
  IC50 against cell proliferation: > 1,000 μg/ml
[22]
  IC50 against cell proliferation: > 1,000 μg/ml
[7]
  Inhibition zone: 10.6 mm and 16.8 mm
[7]; [23]
  Inhibition zone, partial inhibition (value in parentheses): 15.2 mm
[9]
  Inhibition zone: 0 mm
Bacillus subtilis rec^-
  Inhibition zone: 0 mm
Bacillus subtilis rec^-; [23]
  Inhibition zone, partial inhibition (value in parentheses): 15.2 mm

## CC[C@H](C)[C@H](NC(=O)[C@H](Cc1ccccc1)NC(=O)[C@@H](NC(=O)[C@H](Cc1cnc[nH]1)NC(=O)CNC(=O)CNC(=O)[C@H](Cc1ccccc1)NC(=O)[C@H](CC(C)C)NC(=O)[C@@H]1CC(=O)NCC(=O)N[C@@H](Cc2ccc(O)cc2)C(=O)N2CCC[C@H]2C(=O)N[C@@H](Cc2c[nH]c3ccccc23)C(=O)N[C@@H](Cc2c[nH]c3ccccc23)C(=O)N[C@@H](CC(=O)O)C(=O)N[C@@H](Cc2ccc(O)cc2)C(=O)N[C@@H](CCCNC(=N)N)C(=O)N1)[C@@H](C)O)C(=O)N[C@@H](CO)C(=O)N1CCC[C@H]1C(=O)O [SNA-115] (GYPWWDYRDLFGGHTFISP-OH; lactam N-9)
[4]
  IC50: 1130 nM and 1100 nM
  Ki: 697 nM and 700 nM
[8]
  acute toxicity: ≥ 10 mg/kg
Solubility in solvents
  Solubility: Soluble in methanol, dimethylsulfoxide, butanol and ethanol, and insoluble in acetonitrile, chloroform, acetone and water
